Calls of active or inactive are those of the source. No cut-off for these calls is given here.
Experiments:
[1] = target: T1, 3',5'-cyclic-AMP phosphodiesterase 4D (Homo sapiens, UniProt Q08499); test: Inhibition of N-terminal 6His-tagged human recombinant PDE4D2 expressed in Escherichia coli BL21 (DE3) at 1 uM after 15 mins using [3H]cAMP by scintillation proximity assay
UMR106 [2] = test: Inhibition of PDE4D2 in rat UMR106 cell lysates at 1 uM after 15 mins using [3H]cAMP by scintillation proximity assay; assay type: cell-free
UMR106 [3] = test: Inhibition of PDE4D2 in rat PTHrP-stimulated UMR106 cells coexpressing pCRE-luc assessed as activation of cREB protein after 4 hrs by measuring luciferase activity by luminescence assay; assay type: cell-based
UMR106 [4] = test: Inhibition of PDE4D2 in rat UMR106 cells coexpressing pCRE-luc assessed as activation of cREB protein after 4 hrs by measuring luciferase activity by luminescence assay; assay type: cell-based
UMR106 [5] = test: Inhibition of PDE4D2 in rat UMR106 cells coexpressing pCRE-luc assessed as activation of cREB protein at 10 uM after 4 hrs by measuring luciferase activity by luminescence assay; assay type: cell-based
[6] = Inhibition of rat PDE4D2 in UMR106 cell lysates after 15 mins using [3H]cAMP by scintillation proximity assay; assay type: cell-free
[7] = Inhibition of PDE in rat UMR106 cells co-expressing CRE-luc assessed as PTH-induced cAMP accumulation by luciferase reporter gene assay; assay type: cell-based
[8] = target: T1, 3',5'-cyclic-AMP phosphodiesterase 4D; test: Inhibition of human recombinant PDE4D2 overexpressed in Escherichia coli after 15 mins using [3H]cAMP by scintillation proximity assay

T1 sequence (Q08499 whole entry): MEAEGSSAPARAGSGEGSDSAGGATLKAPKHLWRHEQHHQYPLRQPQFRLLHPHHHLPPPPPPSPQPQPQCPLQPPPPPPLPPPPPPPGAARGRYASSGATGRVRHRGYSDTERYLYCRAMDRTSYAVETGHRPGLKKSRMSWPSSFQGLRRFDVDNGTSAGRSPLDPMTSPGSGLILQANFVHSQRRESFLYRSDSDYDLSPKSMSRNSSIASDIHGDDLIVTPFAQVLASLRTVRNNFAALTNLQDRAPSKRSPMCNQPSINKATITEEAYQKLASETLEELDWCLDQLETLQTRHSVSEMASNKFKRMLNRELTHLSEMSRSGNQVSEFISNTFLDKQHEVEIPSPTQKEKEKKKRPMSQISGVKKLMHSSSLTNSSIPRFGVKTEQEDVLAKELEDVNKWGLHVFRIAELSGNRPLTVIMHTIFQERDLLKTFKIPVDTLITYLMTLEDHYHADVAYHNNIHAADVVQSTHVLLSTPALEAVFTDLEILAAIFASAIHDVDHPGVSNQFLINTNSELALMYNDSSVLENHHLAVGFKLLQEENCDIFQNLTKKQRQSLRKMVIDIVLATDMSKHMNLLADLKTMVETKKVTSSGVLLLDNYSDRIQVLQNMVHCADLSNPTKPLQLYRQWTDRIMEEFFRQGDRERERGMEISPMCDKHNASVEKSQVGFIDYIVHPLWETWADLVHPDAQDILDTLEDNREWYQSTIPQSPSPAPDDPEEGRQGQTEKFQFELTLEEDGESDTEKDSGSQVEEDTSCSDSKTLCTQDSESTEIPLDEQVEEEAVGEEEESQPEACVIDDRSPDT

Compound	inhibition [1] [%]	inhibition (UMR106 [2]) [%]	also measured
CCOC(=O)c1c(NCc2ccccc2)sc2c1CCN(C(=O)OCC)C2	–	33	–
CCOC(=O)c1c(NC(=O)c2ccccc2)sc2c1CCN(C(=O)OCC)C2	–	14	–
CCOC(=O)c1c(NC(=O)Cc2ccccc2)sc2c1CC(C)(C)OC2	–	–	inhibition (UMR106 [5]): Active
CCOC(=O)c1c(NC(=O)c2cccc(S(=O)(=O)N3CCOCC3)c2)sc(C)c1C	–	–	inhibition (UMR106 [5]): Active
CCOC(=O)c1c(NC(=O)Cc2cccc(OC)c2)sc2c1CCN(C(=O)OCC)C2	–	9	–
COc1ccc(C2CNC(=O)C2)cc1OC1CCCC1 (stereo unspecified) [ROLIPRAM]	–	–	IC50 [7]: 0.6 µM
CCOC(=O)c1c(NC(=O)Cc2ccccc2)sc2c1CCC2	–	–	inhibition (UMR106 [5]): Active
CCOC(=O)c1c(NC(=O)Cc2ccccc2OC)sc2c1CCN(C(=O)OCC)C2	–	37	–
N#Cc1c(NC(=O)Cc2ccccc2)sc2c1CCCC2	–	24	–
CCOC(=O)c1c(NC(=O)Cc2cccs2)sc2c1CCCC2	–	–	inhibition (UMR106 [5]): Active
CCOC(=O)c1c(NC(=O)CCc2ccccc2)sc2c1CCN(C(=O)OCC)C2	–	22	–
CCOC(=O)c1c(NC(=O)Cc2ccc(S(C)(=O)=O)cc2)sc2c1CCN(C(=O)OCC)C2	–	-4	–
NC(=O)c1c(NC(=O)Cc2ccccc2)sc2c1CCCC2	–	15	–
CCOC(=O)c1c(NC(=O)Cc2ccccc2)sc2c1CCN(C(C)=O)C2	–	50	IC50 [6]: 1 µM
CCOC(=O)c1c(NC(=O)Cc2ccccc2)sc2c1CCNC2	–	25	–

Second part, led by results:

inhibition [1] [%]	Compound	inhibition (UMR106 [2]) [%]	also measured
38	CCOC(=O)c1c(NC(=O)Cc2ccccc2)sc2c1CCN(C(=O)OC(C)(C)C)C2	–	–
88	CCNC(=O)N1CCc2c(sc(NC(=O)Cc3cccs3)c2C(=O)OC2CCCC2)C1	–	–
-1	CCOC(=O)N1CCc2c(sc(NC(=O)Cc3ccccc3)c2C(N)=O)C1	18	–
95	CCOC(=O)N1CCc2c(sc(NC(=O)Cc3cccs3)c2C(=O)OC2CCCC2)C1	–	inhibition (UMR106 [3]): Dose-dependent effect; inhibition (UMR106 [4]): Dose-dependent effect
61	CCOC(=O)N1CCc2c(sc(NC(=O)Cc3ccccc3)c2C(=O)OC2CCCCC2)C1	–	–
98	CCOC(=O)c1c(NC(=O)Cc2cccs2)sc2c1CCN(C(=O)OCC)C2	70	IC50 [6]: 0.182 µM
65	O=C(Cc1ccccn1)Nc1sc2c(c1C(=O)OC1CCCC1)CCN(C(=O)NCc1ccccc1)C2	–	–
23	CCOC(=O)c1c(NC(=O)Cc2ccc(OC)cc2)sc2c1CCN(C(=O)OCC)C2	26	–
68	CCOC(=O)c1c(NC(=O)Cc2ccccc2)sc2c1CCCC2	–	inhibition (UMR106 [5]): Active; IC50 [8]: 1.5 µM
72	CCOC(=O)c1c(NC(=O)Cc2ccccn2)sc2c1CCN(C(=O)OCC)C2	73	IC50 [6]: 0.08 µM
98	CCNC(=O)N1CCc2c(sc(NC(=O)Cc3ccccc3)c2C(=O)OCC)C1	–	–
86	CCOC(=O)c1c(NC(=O)Cc2ccccc2)sc2c1CCN(C(=O)OCC)C2	85	inhibition (UMR106 [5]): Active; IC50 [8]: 0.1 µM

— ChEMBL document CHEMBL1921705, “Thiophene inhibitors of PDE4: crystal structures show a second binding mode at the catalytic domain of PDE4D2” (Bioorg Med Chem Lett, 2011)
